Measurements from patent US7811604B1, “Non-effervescent, orally disintegrating solid pharmaceutical dosage forms comprising clozapine and methods of making and using the same” (Barr Laboratories, Inc., priority 2005, dated 2010).
Where a SMILES comes first, the peptide text is derived from it.

Columns and labels:
[1] = Compaction index of excipients; type: physicochemical; conditions: force to fracture a solid mass prepared by compaction of 500 mg of powder under 1000 lbs pressure, 16/32″ die, flat face punches
From the text: In some embodiments, the concentration of the non-polymeric water-soluble carrier, disintegrant, and water-insoluble polymer can be selected to optimize the physical integrity of the dosage forms of the present invention (i.e., to minimize the friability of the dosage forms of the present invention). Not being bound by any particular theory, the durability, robustness, and/or friability of the compressed dosage forms of the present invention can be estimated using the compaction index of the excipients used to prepare the dosage forms. As used herein, “compaction index” refers to the force in kiloponds (kp) required to fracture a solid mass prepared by compaction of 500 mg of powder under 1000 lbs pressure using a 16/32″ die and flat face punches. To obtain dosage forms having both low friability and low hardness, a mixture used to prepare the dosage forms can have a compaction index of at least about 5 kp/500 mg/1000 lbs. Not being bound by any particular theory, the compaction index can be used as an indicator of particle interactions in a compressed solid dosage form. For example, the compression of a dry mixture usually has a significant effect on the inter-particle interactions within the mixture, and can involve combinations of • (i) closer contact between particles and the exclusion of air; • (ii) alignment and interlocking of particles; • (iii) the development of stresses and shearing forces that result in fracture and the generation of smaller particles; • (iv) elastic and plastic deformations of particles that can change particle shape; and • (v) chemical bonding between adjacent particles, especially during long-term storage.
Depending on the properties of the excipients comprising the mixture, powdered mixtures can undergo elastic, plastic, or visco-elastic deformation, or brittle fracture, when placed under compressive force. After compression, a compressed dosage form tends to undergo elastic recovery, visco-elastic recovery or brittle fracture. […]

[2] = Particle size and particle size distribution of ingredients; type: physicochemical; conditions: for D50: median particle size of ingredient used for Dosage Form A; for D10 / D90: particle size distribution of ingredient used for Dosage Form A; for VMD: volume mean diameter D[4,3] of ingredient used for Dosage Form A
From the text: As used herein, the term “particle size” refers to particle diameter. Particle size and particle size distribution can be measured using, for example, a Hyac/Royco particle size analyzer, a Malvern particle size analyzer, a Beckman Coulter laser diffraction particle size analyzer, or a Shimadzu laser diffraction particle size analyzer. As used herein, the term “diameter” relates to a volumetric measurement based on an approximate spherical shape of a particle. In addition to encompassing free base clozapine particles of a given size, the present invention is also directed to formulations and solid oral dosage forms wherein the distribution of particle sizes of free base clozapine and the excipients are controlled. As used herein, a “distribution” refers to the number or concentration (i.e., percentage) of particles having a certain size, or range of sizes, within a given lot, batch, or solid oral dosage form of the present invention.
As used herein, “volume mean diameter,” when used in reference to the size of particles for use with the present invention, refers to the value of the volume moment mean as represented by D[4,3]. This value indicates the central point of frequency around which the distribution of surface area or volume rotates.
As used herein, the “median” particle size is synonymous with the “particle size D50,” in microns. For example, for the five particle values listed above, the median diameter, or particle size D50, would be 20 μm.
As used herein, “particle size D90,” refers a mixture wherein about 90% of all measurable particles have a diameter equal to or less than the value D90, in microns, and 10% of the measurable particles have a diameter greater than the value of D90, in microns.
The particle size and particle size distribution of the various excipient used in the particulate mixture of the present invention are listed in Table 2.

Compound `COC(=O)[C@H](Cc1ccccc1)NC(=O)[C@@H](N)CC(=O)O` [Aspartame] (H-Asp-Phe-OMe) has a Compaction index [1] of 10 kp/500 mg/1000 lbs.
`CN1CCN(C2=Nc3cc(Cl)ccc3Nc3ccccc32)CC1` [Free base clozapine, 8-chloro-11-(4-methyl-1-piperazinyl)-5H-dibenzo[b,e][1,4]diazepine, reference compound] gave a D50 [2] of 19 μm, a D10 [2] of 5 μm and a D90 [2] of 51 μm. For the same compound, the VMD [2] was 25 μm.
For `OC[C@@H](O)[C@@H](O)[C@H](O)[C@H](O)CO` [Mannitol], the D50 [2] was 221 μm, the D10 [2] was 81 μm and the D90 [2] was 507 μm. For the same compound, the VMD [2] was 263 μm and the Compaction index [1] was 9 kp/500 mg/1000 lbs.
Work on `OC[C@@H](O)[C@H](O)[C@@H](O)CO` [Xylitol] yielded a D50 [2] of 167 μm, a D10 [2] of 86 μm and a D90 [2] of 310 μm. It also gave a VMD [2] of 184 μm and a Compaction index [1] of 0.7 kp/500 mg/1000 lbs.
